Measured values as given in patent US20260250412A1, “COMBINATION OF ANTIBODY-DRUG CONJUGATE AND ANTI-PD-1 ANTIBODY, AND USE THEREOF” (GENEQUANTUM HEALTHCARE (SUZHOU) CO., LTD., priority 2023, published 2026).

Columns and labels:
[1] = tested on: NCI-N87 mouse xenograft tumor; experiment: In vivo efficacy, NCI-N87 mouse xenograft tumor; set-up: species or system BALB/c nude mice; details: Table 14, BIW*6, 3 mg/kg
[2] = tested on: MDA-MB-468 mouse xenograft tumor; experiment: In vivo efficacy, MDA-MB-468 mouse xenograft tumor; set-up: species or system BALB/c Nude mice; details: 4.5 mg/kg, intravenously
Experimental: The MDA-MB-468 tumor cells (ATCC, HTB-132) were maintained in vitro as a monolayer culture in L-15 medium supplemented with 10% fetal bovine serum and 1% Antibiotic-Antimycotic at 37° C. in an atmosphere of 0% CO2 in air. The cells growing in an exponential growth phase will be harvested and counted for tumor inoculation. For in vivo anti-tumor efficacy study, 10×10^6 MDA-MB-468 human breast cancer cells (Trop2 positive) in 0.2 mL of PBS with Matrigel (1:1) were inoculated subcutaneously in the right flank in BALB/c Nude mice. […] The tumor volume was measured twice weekly with a caliper. T/C and TGI values were calculated using tumor volume.

[3] = tested on: human breast cancer BR-05-0028 model; experiment: In vivo efficacy, human breast cancer BR-05-0028 mouse xenograft tumor; set-up: species or system BALB/c nude mice
Experimental: II. The tumor diameter was measured with a vernier caliper and the tumor volume was calculated according to the formula V=0.5a×b^2 (where a is the longest diameter of the tumor and b is the shortest diameter of the tumor). […] Animals in each group were administered by tail vein injection, and the control group was given an equal volume of vehicle. […] T/C and TGI values were calculated using tumor volume. The calculation formula is as follows: T/C %=TRTV/CRTV×100% (TRTV: RTV of the treatment group; CRTV: RTV of the vehicle control group). The relative tumor volume (RTV) was calculated based on the results of tumor measurement, and the calculation formula was RTV=Vt/V0, where V0 was the average tumor volume measured at the time of grouping (i.e., D0), Vt was the average tumor volume at one measurement, and TRTV and CRTV took the same day of data.
The human breast cancer BR-05-0028 model (IHC 3±) was derived from tumor samples resected in clinical surgery. The tumor samples were inoculated into nude mice at the P0 generation, and the tumor tissue used in this example was the P5 generation. Tumor tissue with a volume of about 30 mm^3 was subcutaneously inoculated into the right back dorsum of SPF female BALB/c nude mice aged 6-8 weeks.

[4] = Table 15, BIW*6, 5 mg/kg, Day 21

**Q.** For Trodelvy, which “Tumor volume (mm^3) Day 32” value [1] is on record?
**A.** The value was 864 ± 114 mm^3.

**Q.** What about the “T/C (%)” value ([1]; Day 32) of the same substance?
**A.** Its value is 65.85%.

**Q.** And the “TGI (%)” value ([1]; Day 32)?
**A.** The value was 41.10%.

**Q.** And the “Tumor volume (mm^3) Day 0” value ([1]; baseline at grouping)?
**A.** The value was 227 ± 21 mm^3.

**Q.** And the “Tumor volume (mm^3) on day 35” value [2]?
**A.** The value was 535 ± 60 mm^3.

**Q.** And the “T/C (%)” value ([2]; day 35)?
**A.** The value was 78.73%.

**Q.** And the “TGI (%)” value ([2]; day 35)?
**A.** The value was 29.24%.

**Q.** What about the “Tumor volume (mm^3) Day 21” value ([3]; Table 15, BIW*6, 5 mg/kg) of the same substance?
**A.** Its value is 5 ± 2 mm^3.

**Q.** And the “T/C (%)” value [3, 4]?
**A.** Its value is 0.35%.

**Q.** What about the “TGI (%)” value [3, 4] of the same substance?
**A.** Its value is 111.76%.

**Q.** What about the “Tumor volume (mm^3) Day 0” value ([3]; Table 15, BIW*6, 5 mg/kg, baseline at grouping) of the same substance?
**A.** Its value is 171 ± 29 mm^3.

**Q.** And the “tumor growth inhibition (in words)” value ([3]; effect example 3.1.3, 5 mg/kg (ADC-1 also 10 mg/kg), after 21 days)?
**A.** Its value is “able to significantly inhibit tumor growth”.
